Values after ≈ are worked out from the molar mass of the structure shown. Where two headings read alike, the source gives them in different places.
Experiments:
[1] = Measured solubility in buffer, LC-MS/MS; format: physicochemical; settings: aqueous buffer, thermodynamic from solid
Procedure: […] The mixture was vortexed and a magnetic stirring bar was subsequently added to the vial. The vial was placed on a magnetic stirrer with constant stirring for 16-24 hours at room temperature. The pH of the top layer solution was measured. Subsequently, 200 μL of the top layer solution was placed in a 1.5 mL microcentrifuge tube and centrifuged at 18,000 g for 10 min at room temperature. A 10 μL aliquot of supernatant was added to 990 μL of methanol:water (1/:1, v/v) and vortexed. Then, one volume of acetonitrile containing internal standard was added to one volume of the above 100-fold diluted solution and the resulting solution was vortexed and placed in 96-well plate for LC-MS/MS analysis. […] LC-MS-MS analysis was performed utilizing multiple reaction monitoring for detection of characteristic ions for each test compound, additional related analytes and internal standard.

[2] = Pharmacokinetic study with Compound 111 (IV 5 mg/kg, PO 25 mg/kg); format: in vivo; settings: analyte Compound 111, fasted male beagle dogs, mean; for AUC(0-t): read-out: Compound 111 PK AUClast; for MRT inf: read-out: Compound 111 PK MRTInf; for half-life: read-out: Compound 111 PK t1/2 (converted); for Vd: male, beagle, iv, 5 mg/kg
Procedure: […]; n=3) and oral (PO) administration (25 mg/kg; n=3) in fasted male beagle dogs.

in vitro [3] = assay: in vitro
[4] = Mouse liver microsomal stability; format: in vitro ADME
Procedure: (§1) For several compounds only human liver microsomal stability was tested. […] The microsomal assays were carried out with and without the addition of NADPH at a final concentration of 1 mM. For negative control samples, NADPH reagent was not added. […] Note that compounds undergo only Phase I metabolism in liver microsomes.
(§2) CLint=the intrinsic hepatic clearance (uL/min/mg), where CLint is equal to 0.693/(t1/2×Cmp)
Certain compounds were also tested in mice and dog liver microsome assays according to the protocol outlined above. […].

in vitro [5] = format: in vitro ADME, human
Procedure: as §1

[6] = Stability in simulated intestinal fluid (SIF); format: in vitro ADME
Procedure: (§3) The stability of exemplary compounds in simulated gastric fluid (SGF) and simulated intestinal fluid (SIF) was tested according to the following protocol.

[7] = Stability in simulated gastric fluid (SGF); format: in vitro ADME
Procedure: as §3

Dog plasma stability = format: in vitro ADME
Procedure: (§4) For each test compound, samples at a final concentration of 2 μg/mL were prepared in blank plasma of selected species. All samples were incubated at 37° C. on a 150-RPM orbital shaker, and an aliquot was removed at pre-determined time points (0, 15, 30, 60, and 120 minutes). Samples were precipitated with three volumes of acetonitrile containing propranolol as internal standard, and centrifuged for 10 min at 2000 g before LC/MS/MS analysis of the supernatant solutions.

[8] = Dog liver microsomal stability; format: in vitro ADME
In short: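 Liver microsomes incubated with compound with and without 1 mM NADPH (final), the no-NADPH samples serving as negative control, so only Phase I metabolism is captured. CLint (uL/min/mg) calculated as 0.693/(t1/2×Cmp).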

[9] = Rat liver microsomal stability; format: in vitro ADME
Procedure: as §1, §2

Mouse plasma stability = format: in vitro ADME; settings: 2 μg/mL, 37° C.
Procedure: as §4

[10] = Pharmacokinetic study with Compound 224 (IV 2 mg/kg, PO 10 mg/kg); settings: male, beagle, dog, plasma, analyte Compound 224, fasted male beagle dogs, mean
Procedure: Analysis time points for the IV arm were 0.083, 0.25, 0.5, 1, 2, 4, 8, 12, 24, 36 and 48 hours post dose and analysis time points for the PO arm were 0.25, 0.5, 1, 2, 4, 8, 12, 24, 36 and 48 hours post dose.

[11] = dog, plasma, IV 5 mg/kg Compound 111
[12] = dog, plasma, oral 25 mg/kg Compound 111

SMILES: CC(=O)[C@H]1CC[C@H]2[C@@H]3CC[C@H]4C[C@](C)(OC(=O)CN)CC[C@]4(C)[C@H]3CC[C@]12C [Compound 111]
- solubility ([1]; pH 7.4, 50 mM phosphate buffer, 16-24 hours, room temperature, read-out: Solubility pH 7.4): 29.1 µg/mL (≈ 74.7 µM)
- solubility ([1]; buffer, pH 2.0, room temperature, read-out: Solubility pH 2.0): 1520 µg/mL (≈ 3900 µM)
- Compound 111 PK AUCInf/D ([2]; oral 25 mg/kg Compound 111): 68.7 kg·ng·h/mL/mg
- AUC(0-inf) ([2]; dog, plasma, IV 5 mg/kg Compound 111, read-out: Compound 111 PK AUCinf): 2790 ng·h/mL
- AUC(0-t) [2, 11]: 2740 ng·h/mL
- C0 ([2]; dog, plasma, IV 5 mg/kg Compound 111, read-out: Compound 111 PK C0): 1500 ng/mL
- clearance ([2]; dog, plasma, IV 5 mg/kg Compound 111, read-out: Compound 111 PK CL): 31.7 mL/min/kg
- MRT inf [2, 11]: 3.68 h
- half-life [2, 11]: 3.54 h
- AUC(0-inf) ([2]; dog, plasma, oral 25 mg/kg Compound 111, read-out: Compound 111 PK AUCInf): 1720 ng·h/mL
- AUC(0-t) [2, 12]: 1570 ng·h/mL
- Cmax ([2]; dog, plasma, oral 25 mg/kg Compound 111, read-out: Compound 111 PK Cmax): 177 ng/mL
- MRT inf [2, 12]: 10.6 h
- Tmax ([2]; dog, plasma, oral 25 mg/kg Compound 111, read-out: Compound 111 PK Tmax): 2.67 h
- half-life [2, 12]: 7.15 h
- bioavailability ([2]; dog, plasma, oral 25 mg/kg vs IV 5 mg/kg Compound 111, read-out: Compound 111 PK F (%)): 11.4%
- Vd ([2]; dog, plasma, IV 5 mg/kg Compound 111, read-out: Compound 111 PK Vss): 6.71 L/kg
- Vd ([2]; dog, plasma, IV 5 mg/kg Compound 111, read-out: Compound 111 PK Vz): 9.47 L/kg
- Human plasma t90 (in vitro [3]; human plasma, 2 μg/mL, 37° C.): 542 min
- half-life (in vitro [3]; human, plasma): 60 h
- Rat plasma t90 (in vitro [3]; rat plasma, 2 μg/mL, 37° C.): 132 min
- half-life (in vitro [3]; rat, plasma): 14.6 h
- microsomal CLint ([4]; mouse liver microsomes 0.5 mg/mL, compound 0.5 μM, read-out: Mouse Liver Microsomal Stability CLint (uL/min/mg liver)): 11.8 µL/min/mg
- half-life ([4]; mouse liver microsomes 0.5 mg/mL, compound 0.5 μM, read-out: Mouse Liver Microsomal Stability t1/2): 1.97 h
- Mouse Liver Microsomal Stability no NADPH, % remain 1 h ([4]; mouse liver microsomes, no NADPH, 1 h): 92.7%
- half-life (in vitro [5]; human liver microsomes 0.5 mg/mL, with NADPH, compound 0.5 μM, 37° C., read-out: Human Liver Microsomal Stability t1/2): 3.17 h
- microsomal CLint (in vitro [5]; human liver microsomes 0.5 mg/mL, with NADPH, compound 0.5 μM, read-out: Human Liver Microsomal Stability CLint (uL/min/mg liver) (converted)): 7.28 µL/min/mg
- Human Liver Microsomal Stability no NADPH, % remain 1 h (in vitro [5]; human liver microsomes, no NADPH, compound 0.5 μM): 82.6%
- SIF (% remain, 60 min) ([6]; SIF with pancreatin pH 6.8, 37° C., 60 min): 79.0%
- half-life ([6]; simulated gi fluid, SIF with pancreatin pH 6.8, 37° C., 2 μg/mL, read-out: SIF t1/2): 4.27 h
- SGF (% remain, 60 min) ([7]; SGF with pepsin pH 1.2, 37° C., 60 min): 95%
- half-life ([7]; simulated gi fluid, SGF with pepsin pH 1.2, 37° C., 2 μg/mL, read-out: SGF t1/2): 12.4 h
- Dog plasma t90 (Dog plasma stability; dog plasma, 2 μg/mL, 37° C.): 243 min
- half-life (Dog plasma stability; dog plasma, 2 μg/mL, 37° C., read-out: Dog plasma Half life (t1/2)): 26.8 h
- microsomal CLint ([8]; dog liver microsomes 0.5 mg/mL, compound 0.5 μM, read-out: Dog Liver Microsomal Stability CLint (uL/min/mg liver)): 4.95 µL/min/mg
- half-life ([8]; dog liver microsomes 0.5 mg/mL, compound 0.5 μM, read-out: Dog Liver Microsomal Stability t1/2): 4.67 h
- Dog Liver Microsomal Stability no NADPH, % remain 1 h ([8]; dog liver microsomes, no NADPH): 92.3%
- Comments: production of GNX (ganaxolone) in rat liver microsomes ([9]; rat liver microsomes): In rat no GNX produced;
- half-life ([9]; rat liver microsomes 0.5 mg/mL, with NADPH, compound 0.5 μM, 37° C., read-out: Rat Liver Microsomal Stability t1/2): 5.58 h
- microsomal CLint ([9]; rat liver microsomes 0.5 mg/mL, with NADPH, compound 0.5 μM, read-out: Rat Liver Microsomal Stability CLint (uL/min/mg liver)): 4.13 µL/min/mg
- Rat Liver Microsomal Stability no NADPH, % remain 1 h ([9]; rat liver microsomes, no NADPH, compound 0.5 μM): 99.7%
- Mouse plasma t90 (Mouse plasma stability): 67.2 min
- half-life (Mouse plasma stability; read-out: Mouse plasma Half life (t1/2)): 7.43 h

SMILES: CC(=O)[C@H]1CC[C@H]2[C@@H]3CC[C@H]4C[C@](C)(OC(=O)COC(=O)C(C)(C)O)CC[C@]4(C)[C@H]3CC[C@]12C [Compound 224]
- Human plasma t90 (in vitro [3]; human): 6.5 min
- half-life (in vitro [3]; human, plasma): 0.717 h
- Rat plasma t90 (in vitro [3]; rat): 2.16 min
- Observations: stability / GNX production in rat plasma (in vitro [3]; rat, plasma): GNX produced in rat
- half-life (in vitro [3]; rat, plasma): 0.24 h
- half-life (in vitro [5]; human, microsomes): 0.0278 h
- microsomal CLint (in vitro [5]; human, microsomes): 828 µL/min/mg
- Human Liver Microsomal Stability no NADPH, % remain 1 h (in vitro [5]; human, microsomes): 0.4%
- SIF (% remain, 60 min) ([6]; simulated gi fluid, 1 h, pH 6.8): 60%
- half-life ([6]; simulated gi fluid, pH 6.8): 1.63 h
- Vd ([10]; Compound 224 PK Vss (L/kg)): 5.92 L/kg
- Vd ([10]; Compound 224 PK Vz (L/kg)): 16.1 L/kg
- SGF (% remain, 60 min) ([7]; simulated gi fluid, 1 h, pH 1.2): 88%
- half-life ([7]; simulated gi fluid, pH 1.2): 6.08 h
- Dog plasma t90 (Dog plasma stability; dog): 126 min
- half-life (Dog plasma stability; dog plasma): 14 h
- half-life ([8]; dog, microsomes): 0.118 h
- microsomal CLint ([8]; dog, microsomes): 196 µL/min/mg
- Dog Liver Microsomal Stability no NADPH, % remain 1 h ([8]; dog, microsomes): 0.6%
- Comments: production of GNX (ganaxolone) in rat liver microsomes ([9]; rat liver microsomes): In rat no GNX produced;
- half-life ([9]; rat, microsomes): 0.163 h
- microsomal CLint ([9]; rat, microsomes): 142 µL/min/mg
- Rat Liver Microsomal Stability no NADPH, % remain 1 h ([9]; rat, microsomes): 1.4%

— US20250034201A1, “PRODRUGS OF GANAXOLONE” (priority 2022, published 2025)
